Test results reported in patent US20250134379A1, “Methods for Localization of Cancerous Tissue Using Fluorescent Molecular Imaging Agent for Diagnosis or Treatment” (Vergent Bioscience, Inc., priority 2023, published 2025).

Columns and labels:
tumor [1] = assay: Intraoperative NIR imaging of patients given VGT-309 before surgery; assay type: in vivo, human; details: patient
Excerpt: A patient appeared to have a localized tumor, as identified by the preoperative scans, but the surgeon identified lymph node spread during resection with VGT-309. […] Absent from these scans were any evidence of spread to other areas of the lungs or the lymph nodes. […] […] The surgeon also visually examined and biopsied the proximal lymph nodes, neither of which indicated the tumor had spread. […] The surgeon was therefore able to perform a biopsy, which confirmed that the cancer had spread, and as a result re-staged the patient in real-time and performed a radical lymph node dissection. At the end of the procedure, the surgeon removed all traces of the cancer.
However, it was confirmed under NIR that this abnormal lung tissue was in fact cancerous.

cancerous tissue = assay: Preclinical / animal model studies of duration of VGT-309 fluorescence in tissue; assay type: in vivo
Excerpt: There are several molecular imaging agents that are currently in various stages of development and testing, but of these agents VGT-309 is particularly advantageous. VGT-309 targets and covalently binds to cathepsin targets, which are present in larger amounts in solid tumors and tumor margins than in normal tissues. When this binding occurs, the quencher is cleaved from the molecule and VGT-309 becomes “active” at which point the tumor will fluoresce under near-infrared (NIR) light.

tumor [2] = assay: Phase 2 study of VGT-309 in Australia: clinically significant events (CSEs) during tumor removal; assay type: in vivo, human; details: Phase 2 study in Australia
Excerpt: CSEs are one way to measure whether an imaging agent, such as VGT-309, adds a clinical benefit to the diagnosis and treatment process. In this context, CSEs generally fall into one of three categories: (1) localization of hard-to-find tumors, (2) identification of positive resection margins, and (3) identification of additional primary and metastatic lesions that were not previously detected using existing technologies. […] In a Phase 2 study of VGT-309 in Australia, one third of patients experienced a […]

CC1(C)C(/C=C/C2=C(Cl)C(=C/C=C3/N(CCCCCC(=O)NCCNC(=O)c4c(F)c(F)c(OCC(=O)[C@H](CCCCNC(=O)CCCCCN5/C(=C/C=C/C=C/C=C\C6=[N+](CCCCS(=O)(=O)O)c7ccc8ccccc8c7C6(C)C)C(C)(C)c6c5ccc5ccccc65)NC(=O)[C@H](Cc5ccccc5)NC(=O)OCc5ccccc5)c(F)c4F)c4ccc5cc(S(=O)(=O)O)ccc5c4C3(C)C)/CCC2)=[N+](CCCS(=O)(=O)O)c2ccc(N(CCCS(=O)(=O)O)CCCS(=O)(=O)O)cc21 [VGT-309]
detection of lymph node spread under NIR (tumor [1]; Example 2, 0.16 mg/kg, approximately 21 hours prior to surgery, biopsy confirmed that the cancer had spread): unexpected fluorescence in a more distant lymph node | identification of metastatic spread / additional tumors under NIR (tumor [1]; Example 3, 0.32 mg/kg, approximately 18.5 hours prior to surgery): identify additional tumors using NIR | time following administration out to which VGT-309 may continue to emit a signal in tissue (cancerous tissue; animal model studies suggest): seven days | time after administration at which VGT-309 can fluoresce cancerous tissue (cancerous tissue; based on preclinical studies): two hours to four days | fraction of patients who experienced a clinically significant event (CSE) (tumor [2]): one third
